According to ChEMBL document CHEMBL5154779, “Exploration of novel phthalazinone derivatives as potential efflux transporter inhibitors for reversing multidrug resistance and improving the oral absorption of paclitaxel” (Eur J Med Chem, 2022):
Activity calls are given as the source filed them. The rule behind the calls is not given here.

Experiments:
[1] = target: T1, Broad substrate specificity ATP-binding cassette transporter ABCG2 (Homo sapiens, UniProt Q9UNQ0); assay: Inhibition of BCRP (unknown origin)
T1 sequence (Q9UNQ0 whole entry): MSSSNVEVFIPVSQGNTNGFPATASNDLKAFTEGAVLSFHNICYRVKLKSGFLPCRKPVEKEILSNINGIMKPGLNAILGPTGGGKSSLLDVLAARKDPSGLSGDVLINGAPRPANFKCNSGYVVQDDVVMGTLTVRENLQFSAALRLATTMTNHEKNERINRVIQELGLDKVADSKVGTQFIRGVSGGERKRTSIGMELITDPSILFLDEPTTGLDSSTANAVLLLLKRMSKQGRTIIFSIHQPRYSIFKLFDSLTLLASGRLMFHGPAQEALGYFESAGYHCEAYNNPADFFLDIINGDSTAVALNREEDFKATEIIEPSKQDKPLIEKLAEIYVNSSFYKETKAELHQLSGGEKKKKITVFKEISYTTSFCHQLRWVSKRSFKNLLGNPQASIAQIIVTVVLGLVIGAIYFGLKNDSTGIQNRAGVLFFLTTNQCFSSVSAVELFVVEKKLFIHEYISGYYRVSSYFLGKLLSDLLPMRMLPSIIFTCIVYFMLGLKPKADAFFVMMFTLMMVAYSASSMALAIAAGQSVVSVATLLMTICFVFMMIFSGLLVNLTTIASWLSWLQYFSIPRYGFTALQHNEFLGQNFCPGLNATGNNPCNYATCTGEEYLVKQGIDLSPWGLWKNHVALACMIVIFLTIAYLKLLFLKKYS

[2] = target: T2, ATP-dependent translocase ABCB1 (Homo sapiens, UniProt P08183); assay: Inhibition of P-gp (unknown origin)
T2 sequence (P08183 whole entry): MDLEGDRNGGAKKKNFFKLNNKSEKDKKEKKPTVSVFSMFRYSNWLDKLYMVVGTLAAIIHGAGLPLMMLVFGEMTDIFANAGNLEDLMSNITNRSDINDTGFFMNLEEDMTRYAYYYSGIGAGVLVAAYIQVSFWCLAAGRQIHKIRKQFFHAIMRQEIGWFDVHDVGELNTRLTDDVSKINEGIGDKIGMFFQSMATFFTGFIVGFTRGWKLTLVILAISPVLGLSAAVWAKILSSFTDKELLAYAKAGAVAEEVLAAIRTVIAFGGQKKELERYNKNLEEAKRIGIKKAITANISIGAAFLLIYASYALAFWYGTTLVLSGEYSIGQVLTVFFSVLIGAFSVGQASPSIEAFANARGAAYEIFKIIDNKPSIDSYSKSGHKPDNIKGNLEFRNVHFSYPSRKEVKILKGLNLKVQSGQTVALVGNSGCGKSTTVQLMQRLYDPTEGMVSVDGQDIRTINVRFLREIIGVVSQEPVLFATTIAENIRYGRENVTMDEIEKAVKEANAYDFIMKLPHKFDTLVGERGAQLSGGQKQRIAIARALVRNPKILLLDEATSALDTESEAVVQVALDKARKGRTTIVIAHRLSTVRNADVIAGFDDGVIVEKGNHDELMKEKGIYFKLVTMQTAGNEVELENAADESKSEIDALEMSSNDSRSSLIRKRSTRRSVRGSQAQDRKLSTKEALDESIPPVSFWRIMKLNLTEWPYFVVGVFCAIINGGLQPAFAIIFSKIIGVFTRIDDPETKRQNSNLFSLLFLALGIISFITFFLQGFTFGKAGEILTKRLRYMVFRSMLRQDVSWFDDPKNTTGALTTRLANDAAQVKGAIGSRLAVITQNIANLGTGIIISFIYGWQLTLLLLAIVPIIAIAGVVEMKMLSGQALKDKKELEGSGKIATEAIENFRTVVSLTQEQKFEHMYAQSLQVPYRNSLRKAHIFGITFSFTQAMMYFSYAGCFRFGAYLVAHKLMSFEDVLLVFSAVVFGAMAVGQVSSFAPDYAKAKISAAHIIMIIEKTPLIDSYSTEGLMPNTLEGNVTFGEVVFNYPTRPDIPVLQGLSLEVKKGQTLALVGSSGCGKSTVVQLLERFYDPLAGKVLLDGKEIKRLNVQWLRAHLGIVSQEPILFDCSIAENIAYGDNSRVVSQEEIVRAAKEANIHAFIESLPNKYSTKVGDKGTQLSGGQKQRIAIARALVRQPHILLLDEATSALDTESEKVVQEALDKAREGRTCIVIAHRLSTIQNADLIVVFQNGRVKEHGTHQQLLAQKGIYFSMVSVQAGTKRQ

[3] = Cytotoxicity against dog MDCK-II-BCRP cells after 48 hrs by MTT assay; format: functional, cell-based; details: Canis lupus familiaris
K562 = assay: Cytotoxicity against human K562 cells after 48 hrs by MTT assay; format: functional, cell-based; details: K562, 48 h
MDCK = assay: Cytotoxicity against dog MDCK cells after 48 hrs by MTT assay; format: functional, cell-based; details: Canis lupus familiaris
A549 = assay: Antiproliferative activity against human A549 cells highly expressing EGFR after 48 hrs by MTT assay; format: functional, cell-based; details: A549, 48 h
K562/A02 = assay: Cytotoxicity against human K562/A02 cells after 48 hrs by MTT assay; format: functional, cell-based; details: K562/A02, 48 h
[4] = target: T2, ATP-dependent translocase ABCB1; assay: Inhibition of P-gp in human K562/A02 cells assessed as rescue of intracellular Rhodamine 123 accumulation at 5 uM incubated for 5 to 120 mins and measured by flow cytometry analysis; format: cell-based; details: k562/a02, 5 µM, time 5-120 min
[5] = Reversal of BCRP-mediated multidrug resistance in dog MDCK-II-BCRP cells in presence of mitoxantrone after 48 hrs by MTT assay; format: cell-based; details: Canis lupus familiaris
[6] = Reversal of P-gp-mediated multidrug resistance in human K562/A02 cells assessed as potentiation of adriamycin-induced cytotoxicity at 0.04 uM by measuring adriamycin IC50 after 48 hrs by MTT assay
[7] = target: T2, ATP-dependent translocase ABCB1; assay: Inhibition of P-gp-mediated multidrug resistance in human K562/A02 cells assessed as adriamycin accumulation at 0.5 to 5 uM pretreated 1.5 hrs followed by treated with adriamycin measured after 4 hrs by flow cytometry analysis; format: cell-based; details: k562/a02, 1.5 h, dose 0.5-5 µM
MDCK-II-BCRP = assay: Inhibition of BCRP-mediated multidrug resistance in dog MDCK-II-BCRP cells assessed as mitoxantrone accumulation at 0.1 to 5 uM pretreated 1.5 hrs followed by treated with mitoxantrone measured after 4 hrs by flow cytometry analysis; format: cell-based; details: Canis lupus familiaris, dose 0.1-5 µM
Caco-2 = assay: Cytotoxicity against human Caco-2 cells assessed as reduction in cell viability at 50 uM after 48 hrs by MTT assay; format: toxicity, cell-based; details: caco-2, 48 h

Structure (SMILES) | EC50 [1] [µM] | EC50 [2] [µM] | IC50 (A549) [µM] | inhibition (INH) [4] | inhibition (INH) [7] | IC50 [3] [µM] | IC50 (K562) [µM] | IC50 (MDCK) [µM] | IC50 (K562/A02) [µM] | EC50 [5] [µM] | IC50 [6] [µM] | inhibition (MDCK-II-BCRP) | Activity (Caco-2) [%]
C#Cc1cccc(Nc2ncnc3cc(OCCOC)c(OCCOC)cc23)c1 [ERLOTINIB] | 0.17 | > 4.93 |  |  |  |  |  |  |  |  |  |  | 
COc1ccc(CCN(C)CCCC(C#N)(c2ccc(OC)c(OC)c2)C(C)C)cc1OC (stereo unspecified) |  |  |  | Active |  |  |  |  | 39.9 |  |  |  | 
O=C(NCCc1cccc(Cl)c1)c1nn(-c2ccc(Cl)cc2)c(=O)c2ccccc12 |  |  | > 100 |  |  | 51.4 | > 100 | > 100 | > 100 |  |  |  | 
COc1ccc(CCNC(=O)c2nn(-c3ccc(Cl)cc3)c(=O)c3ccccc23)cc1OC |  |  | > 100 |  |  | > 100 | > 100 | > 100 | > 100 |  |  |  | 
O=C(Nc1ccc(CCN2CCOCC2)cc1)c1nn(-c2ccc(Cl)cc2)c(=O)c2ccccc12 |  |  |  | Active | Active | 81.2 | 72.8 | 87.7 | 43.3 | 0.0982 | 7232 | Active | < 20
O=C(NCCCN1CCOCC1)c1nn(-c2ccc(Cl)cc2)c(=O)c2ccccc12 |  |  | 73.4 |  |  | > 100 | > 100 | > 100 | > 100 |  |  |  | 

The next lines start with results.

EC50 [1] [µM] | EC50 [2] [µM] | IC50 (A549) [µM] | inhibition (INH) [4] | inhibition (INH) [7] | Structure (SMILES) | IC50 [3] [µM] | IC50 (K562) [µM] | IC50 (MDCK) [µM] | IC50 (K562/A02) [µM] | EC50 [5] [µM] | IC50 [6] [µM] | inhibition (MDCK-II-BCRP) | Activity (Caco-2) [%]
 |  | > 100 |  |  | O=C(Nc1ccc(CCN2CCc3ccccc3C2)cc1)c1nn(-c2ccc(Cl)cc2)c(=O)c2ccccc12 | > 100 | > 100 | > 100 | > 100 |  |  |  | 
 |  | 43.5 |  |  | O=C(NCCc1ccccc1)c1nn(-c2ccc(Cl)cc2)c(=O)c2ccccc12 | 97.3 | > 100 | > 100 | > 100 |  |  |  | 
3.2 | > 2.79 |  |  |  | CS(=O)(=O)CCNCc1ccc(-c2ccc3ncnc(Nc4ccc(OCc5cccc(F)c5)c(Cl)c4)c3c2)o1 [LAPATINIB] |  |  |  |  |  |  |  | 
